Results on two molecules are retold here after patent publication US7615523B2, “Lens care product containing dexpanthenol” (Novartis AG, priority 2006, dated 2009).

A short description of series [1]: antimicrobial (microbiological) efficacy of contact lens care solutions. As to conditions: addition of sorbit to contact lens care compositions.
Series [2] can be described thus: cytotoxicity studies on addition of dexpanthenol and D-sorbit. Type of series: cell-based. As to conditions: addition of sorbit to compositions containing antimicrobial compounds, e.g. PHMB.
Series [3] is described as follows: stabilisation of the lachrymal film when inserting contact lenses. Conditions: when/after inserting the contact lenses. The text has this:
Dexpanthenol, an alcohol of pantothenic acid, also called Provitamin B5, D-pantothenyl alcohol or D-panthenol, has been used for a long time for healing wounds or in the field of medicinal skin care. […] Vortex motion of the lachrymal liquid can occur through the insertion of contact lenses, namely because of mechanical eruption or through surface-active substances optionally present in the contact lens solution and can lead to severe loss of the aqueous lachrymal layer. […] This guards against the appearance of dryness, which can lead to a reduced lachrymal film.
The addition of D-sorbit to adjust the tonicity of contact lens care products is known. GB 2,205,175 and U.S. Pat. No. 3,888,782 describe sorbit as a carrier material for the preparation of powder mixtures for contact lens care products. […] This guards against the appearance of dryness, which can lead to a reduced lachrymal film. […] Negative effects caused by surface-active substances and preservatives are reduced and the contact lenses are prevented from drying out.

With `OC[C@@H](O)[C@@H](O)[C@H](O)[C@@H](O)CO` [sorbit, D-sorbit], the “effect on microbiological efficacy of antimicrobial compounds present, e.g. PHMB” value in series [1] is on record as “substantially increases the microbiological efficacy”. In addition, the toxicity result in series [2] is on record as “without resulting in negative effects as regards toxicity”.

Consider `CC(C)(CO)[C@@H](O)C(=O)NCCCO` [dexpanthenol], for which the lachrymal film stabilisation entry in series [3] is recorded as “stabilises the lachrymal film”.
